Measurements: patent publication EP1209147A1, “CARBOXYLIC ACID DERIVATIVES AND ADHESION MOLECULE INHIBITORS CONTAINING THE SAME AS THE ACTIVE INGREDIENT” (TORAY INDUSTRIES, INC., priority 1999, dated 2001)
Read-outs that look alike come from different tables or passages of the source.

Key:
[1] = target: VLA-4-IgG chimeric protein (Homo sapiens, UniProt P05556+P13612); experiment: Inhibition of binding between CS-1 peptide and VLA-4-IgG chimeric protein
Protocol: The adhesion-inhibition activity of the compound of the present invention against VLA-4 may be examined by using an adhesion assay system in which the adhesion between VLA-4-expressing cells such as Ramos cells and Jurkat cells, and fibronectin or a fragment thereof, e.g., a peptide containing CS-1 sequence (Gly Pro Glu Ile Leu Asp Val Pro Ser Thr) (hereinafter referred to as "CS-1 peptide") immobilized on an immunoplate is measured. Alternatively, a binding assay system in which the binding of the VLA-4 protein to the fibronectin or a fragment thereof such as CS-1 peptide immobilized on an immunoplate is measured may be employed. In the present invention, the inhibition assay of the compound is preferably measured by a binding assay system which measures the binding between a chimeric protein of VLA-4 and immunoglobulin (VLA-4-IgG chimeric protein) and CS-1 peptide (Japanese patent application No. H9-234544), although the method of measuring the inhibition activity is not restricted to this method. The term "VLA-4-IgG chimeric protein" herein means the heterodimer composite molecule in which a chimeric protein between α4 of VLA-4 and immunoglobulin (hereinafter referred to as "VLAα4·IgG chimeric protein), and a chimeric protein between β1 of VLA-4 and immunoglobulin (hereinafter referred to as "VLAβ1·IgG chimeric protein) are associated. As the immunoglobulin, although heavy chain or light chain of IgG, IgM or the like may be employed, in the present invention, IgG1 heavy chain is used. When testing the inhibition activity of the compound, it is preferred to preliminarily mix the VLA-4-IgG chimeric protein and the test compound.
Effects of Compounds for Inhibition of Binding Between CS-1 Peptide and VLA-4-IgG
A conjugate between a peptide (Gys Leu His Gly Pro Glu Ile Leu Asp Val Pro Ser Thr) containing CS-1 sequence and rabbit IgG (Sigma) was prepared by the reported method (Humphries, M.J. et al. J. Biol.Chem., 262, 6886-6892 (1987)). The obtained conjugate was diluted with phosphate buffer (hereinafter referred to as "PBS(-)", NISSUI) and the resulting solution was placed in wells of a 96-well immunoplate (NUNC) in an amount of 100 µl/well, followed by leaving the solution to stand at 4°C for 16 hours to immobilize the conjugate.
Then each well was washed twice with PBS(-), and a PBS solution containing 1% BSA heat-treated at 80°C for 10 minutes was placed in each well in an amount of 300 µl/well. The immunoplate was left to stand at 4°C for 3 hours, and then the solution in each well was removed by aspiration.
After preliminarily allowing each compound to react with VLA-4-IgG chimeric protein (100 µl) at room temperature for 20 minutes, the resulting solution was allowed to react with CS-1 peptide in each well at 30°C for 3 hours. Thereafter, non-bound VLA-4-IgG chimeric protein was removed by aspiration and each well was washed twice with 0.1% BSA-containing TBS buffer (150 mM NaCl,25 mM Tris-HCI, 1 mM MnCl2 pH 7.4). To the bound VLA-4-IgG chimeric protein, biotin-labeled anti-human IgG antibody (Vector) as an primary antibody was added, and then avidin-labeled horse radish peroxidase (Sigma) as a secondary antibody was added, and the reaction was allowed to occur. After the reaction, o-phenylenediamine as a substrate was added to color the solution, and the absorbance at 490 nm was measured. From the absorbance, the binding-inhibition activity of each test compound was determined.

Auricular Edema Model = experiment: Auricular edema model (IgE anti-DNP passive sensitization, DNFB induction); format: in vivo, BLAB/c mouse; conditions: at a dose of not more than 150 mg/kg; topically or systemically, totally 3 times
Protocol: To each BLAB/c mouse (female, 7 weeks old, JAPAN CHARLES RIVER), mouse IgE anti-DNP antibody (5 mg/kg, SEIKAGAKU CORPORATION) was intravenously administered to passively sensitize the mouse. Twenty four hours later, 20 µl of 0.38% 2,4- dinitrofluorobenzene (DNFB, Aldrich) dissolved in acetone:olive oil (4:1) was applied to the auricle of the sensitized mouse to induce inflammation. The thickness of the auricle was measured until 24 hours after the induction with Digimatic Indicator (Mitutoyo) and the ear swelling rate was calculated according to the following equation: Ear Swelling Rate (%) = (A - B)/B x 100 [formula] • A: Thickness of right auricle at 24 hours after induction • B: Thickness of right auricle before induction
Twenty four hours after the induction, the auricle was cut off and fixed with formalin. After the fixation, continuous sections of the auricle were prepared and stained by Luna staining. The number of eosinophils in each section was counted and the total of them was defined as the number of eosinophils accumulated in the auricle.
Compound No. 140 used as the test compound was dissolved in physiological saline and the solution was intravenously administered totally 3 times, i.e., at the time of sensitization, at 8 hours and 24 hours after sensitization, at a dose of 400 mg/kg per each time. Further, to examine the effect of the compound when applied to the auricle, the compound was dissolved in ethanol, and the solution was applied to the auricle totally twice, i.e., at 8 hours after sensitization and at 1 hour before the induction, at a dose of 0.3 mg/ear. To the background group and the control group, physiological saline was intravenously administered and ethanol was applied, respectively. The experiment was carried out using 4 to 6 mice in each group. The results are shown in terms of mean ± standard error.
Twenty four hours after the induction, the auricle was cut off and fixed with formalin. After the fixation, continuous sections of the auricle were prepared and stained by Luna staining. The number of eosinophils in each section was counted. Compound No. 143 used as the test compound was dissolved in physiological saline and the solution was topically or systemically administered totally 3 times, i.e., at the time of sensitization, at 8 hours and 24 hours after sensitization. The experiment was carried out using 4 to 6 mice in each group. The results are shown in terms of mean ± standard error.

Mouse Asthma Model = experiment: Mouse asthma model (OVA/Alum sensitization, OVA inhalation, airway anaphylaxis and BALF eosinophils); format: in vivo, BLAB/c mouse; conditions: at a dose of not more than 150 mg/kg, topically or systemically
Protocol: A mixed solution containing aluminum hydroxide gel (Alum) on which ovalbumin (hereinafter "OVA") was adsorbed (20 ∝g OVA/2mg Alum/200 ∝l physiological saline) was intraperitoneally administered to each BLAB/c mouse (female, 7 weeks old, JAPAN CHARLES RIVER) at a dose of 200 ∝l ([…]) per time on DAY-1 and DAY-14 to sensitize the mouse. Then each mice was made to aspire 2% OVA dissolved in physiological saline on DAY-28, 29 and 30 to induce inflammation. Compound Nos. 143 and 236 used as the test compounds were dissolved in physiological saline and each solution was topically or systemically administered at 30 minutes before induction by OVA, and twice a day after induction.
On DAY-31, development of airway anaphylaxis was measured using a non-restrictive chamber (BUXCO). Then the bronchus of each mouse was incised and the bronchus and alveoli were washed (BAL) with 0.7 ml of physiological saline. After the washing, the washing fluid (BALF) of the bronchus and alveoli was recovered and centrifuged. The leukocytes contained in the BALF were subjected to site spin to prepare a smear specimen. After staining the specimen by May-Giemsa staining method, the leukocytes were grouped and counted under microscope to determine the number of eosinophils. The experiment was carried out using 6 to 8 mice in each group. The results are shown in terms of mean ± standard error.

[2] = binding of VLA-4-IgG chimeric protein to immobilized CS-1 peptide, compound preincubated 20 minutes, read-out: Inhibition Activity(IC50 : nM)

Chain of VLA-4-IgG chimeric protein (P13612 with tags, fused parts or gaps limits assumed): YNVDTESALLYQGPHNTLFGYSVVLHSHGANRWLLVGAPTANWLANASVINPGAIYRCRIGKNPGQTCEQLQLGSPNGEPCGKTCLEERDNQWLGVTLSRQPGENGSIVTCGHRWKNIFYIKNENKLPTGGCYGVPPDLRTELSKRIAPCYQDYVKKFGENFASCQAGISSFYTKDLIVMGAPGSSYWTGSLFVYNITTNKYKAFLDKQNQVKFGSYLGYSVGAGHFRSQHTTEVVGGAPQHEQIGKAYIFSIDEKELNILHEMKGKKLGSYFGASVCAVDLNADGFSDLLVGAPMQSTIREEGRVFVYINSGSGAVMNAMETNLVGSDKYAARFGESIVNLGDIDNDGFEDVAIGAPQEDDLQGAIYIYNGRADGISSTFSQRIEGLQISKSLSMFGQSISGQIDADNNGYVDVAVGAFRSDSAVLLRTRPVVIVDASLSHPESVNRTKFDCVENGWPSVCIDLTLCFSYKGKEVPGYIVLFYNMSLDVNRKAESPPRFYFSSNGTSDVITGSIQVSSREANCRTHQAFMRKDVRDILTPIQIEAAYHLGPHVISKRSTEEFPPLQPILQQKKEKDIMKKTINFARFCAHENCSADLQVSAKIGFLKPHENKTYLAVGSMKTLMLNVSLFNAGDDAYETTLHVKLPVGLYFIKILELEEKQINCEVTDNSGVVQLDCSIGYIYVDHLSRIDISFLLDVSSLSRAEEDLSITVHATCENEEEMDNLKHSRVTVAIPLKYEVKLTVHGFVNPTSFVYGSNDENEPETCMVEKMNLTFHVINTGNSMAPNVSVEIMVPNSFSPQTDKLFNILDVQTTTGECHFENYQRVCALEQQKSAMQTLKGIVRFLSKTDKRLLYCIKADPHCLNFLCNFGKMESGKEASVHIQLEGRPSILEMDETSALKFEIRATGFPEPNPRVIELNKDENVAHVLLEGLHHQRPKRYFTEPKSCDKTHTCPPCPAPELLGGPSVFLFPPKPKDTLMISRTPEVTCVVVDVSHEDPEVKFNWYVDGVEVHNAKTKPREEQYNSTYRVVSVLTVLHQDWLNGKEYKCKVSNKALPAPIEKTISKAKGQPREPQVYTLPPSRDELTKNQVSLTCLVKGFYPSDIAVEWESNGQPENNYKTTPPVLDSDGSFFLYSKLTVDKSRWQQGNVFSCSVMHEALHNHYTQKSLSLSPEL
Chain of VLA-4-IgG chimeric protein (P05556 with tags, fused parts or gaps limits assumed): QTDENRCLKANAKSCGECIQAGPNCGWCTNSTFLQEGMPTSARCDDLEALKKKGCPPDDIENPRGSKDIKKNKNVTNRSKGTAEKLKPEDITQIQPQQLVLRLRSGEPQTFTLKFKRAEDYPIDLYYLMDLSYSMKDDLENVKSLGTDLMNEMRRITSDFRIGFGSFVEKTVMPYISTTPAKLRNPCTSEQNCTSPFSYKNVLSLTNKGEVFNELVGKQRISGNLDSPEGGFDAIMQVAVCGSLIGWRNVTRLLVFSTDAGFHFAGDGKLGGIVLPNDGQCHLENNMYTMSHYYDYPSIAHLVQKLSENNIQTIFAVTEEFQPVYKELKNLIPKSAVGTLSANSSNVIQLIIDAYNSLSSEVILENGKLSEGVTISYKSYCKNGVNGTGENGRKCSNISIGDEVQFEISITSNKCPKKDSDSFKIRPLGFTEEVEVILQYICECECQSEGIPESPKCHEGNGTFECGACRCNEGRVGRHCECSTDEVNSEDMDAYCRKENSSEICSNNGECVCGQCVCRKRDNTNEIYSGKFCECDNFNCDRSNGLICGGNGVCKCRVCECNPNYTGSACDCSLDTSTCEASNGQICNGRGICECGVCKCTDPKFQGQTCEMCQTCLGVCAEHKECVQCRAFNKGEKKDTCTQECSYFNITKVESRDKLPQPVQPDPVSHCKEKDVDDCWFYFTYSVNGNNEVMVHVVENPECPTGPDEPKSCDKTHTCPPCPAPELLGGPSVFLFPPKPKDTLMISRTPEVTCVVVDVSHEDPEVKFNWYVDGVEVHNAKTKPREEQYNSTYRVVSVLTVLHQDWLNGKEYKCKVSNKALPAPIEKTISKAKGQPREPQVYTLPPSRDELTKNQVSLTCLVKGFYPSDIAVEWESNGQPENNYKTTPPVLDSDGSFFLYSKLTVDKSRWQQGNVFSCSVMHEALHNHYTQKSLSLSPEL

Row | Compound | IC50 [1, 2] | IC50 [1] | other results
1 | 3-((2(R)-((1-acetyl-3(R,S)-(4-hydroxyphenyl)pyrrolidin-2(R,S)-yl)carbonylamino)-2(R)-carbonylethyl)disulfanyl)-2(R)-(3,3-dimethylbutanoylamino)propionic acid [Example 74] | 120 nM |  | 
2 | CC(C)CC(C(=O)NC(Cc1ccc(CCC(=O)O)cc1)C(=O)O)c1ccc(O)cc1 (single isomer, unassigned) [Example 120, 3-(4-(2-carboxyethyl)phenyl)-2-(2-(4-hydroxyphenyl)-4-methylpentanoylamino)propionic acid] | 160 nM |  | 
3 | CC(C)CC(C(=O)N[C@@H](CCSC[C@H](NC(=O)C(CC(C)C)c1ccc(O)cc1)C(=O)O)C(=O)O)c1ccc(O)cc1 (stereo partly drawn) [Example 8, 4-(2(R)-carboxy-2(R)-(2(R,S)-(4-hydroxyphenyl)-4-methylpentanoylamino)ethylthio)-2(S)-(2(R,S)-(4-hydroxyphenyl)-4-methylpentanoylamino) butyric acid] |  | 200 nM | 
4 | CC(C)CC(C(=O)N[C@@H](CCSC[C@H](NC(=O)CC(C)(C)C)C(=O)O)C(=O)O)c1ccc(O)cc1 (stereo partly drawn) [Example 14, 4-(2(R)-carboxy-2(R)-(3,3-dimethylbutanoylamino)ethylthio)-2(S)-(2(R,S)-(4-hydroxyphenyl)-4-methylpentanoylamino) butyric acid] |  | 500 nM | 
5 | CC(C)CC(C(=O)NCCCSC[C@H](NC(=O)CC(C)(C)C)C(=O)O)c1ccc(O)cc1 (stereo partly shown) [Example 19] |  | 500 nM | 
6 | CC(C)CC(C(=O)N[C@@H](CSSC[C@H](NC(=O)CC(C)(C)C)C(=O)O)C(=O)O)c1ccc(O)cc1 (stereo partly drawn) [Example 62, 3-((2(R)-carboxy-2(R)-(2(R,S)-(4-hydroxyphenyl)-4-methylpentanoylamino)ethyl)disulfanyl)-2(R)-(3,3-dimethylbutanoylamino)propionic acid] |  | 90 nM | 
7 | CC(C)C[C@H](OCc1ccccc1)C(=O)N[C@@H](Cc1ccc(OCC(C)(C)C)cc1)C(=O)O [Example 102, 2(S)-(4-methyl-2(S)-(phenylmethoxy)pentanoylamino)-3-(4-(2,2-dimethylpropoxy)phenyl)propionic acid] | 500 nM |  | 
8 | CC(C)CC(NC(=O)CCc1ccc(CC(NC(=O)CC(C)(C)C)C(=O)O)cc1)c1ccc(O)cc1 (stereo not shown) [Example 131, 3-(4-(2-(N-(1-(4-hydroxyphenyl)-3-methylbutyl)carbamoyl)ethyl)phenyl)-2-(3,3-dimethylbutanoylamino)propionic acid] | 1800 nM |  | 
9 | COc1cccc(OC)c1C(=O)NCCCC(NC(=O)c1c(Cl)cccc1Cl)C(=O)O (stereo not shown) [Example 143, 2-((2,6-dichlorophenyl)carbonylamino)-5-((2,6-dimethoxyphenyl)carbonylamino)pentanoic acid] | 13 nM |  | accumulation of eosinophils to auricle induced by application of the antigen (Auricular Edema Model): inhibited; swelling of ear induced by application of the antigen (Auricular Edema Model): inhibited; accumulation of eosinophils to the lung (Mouse Asthma Model; BALF on DAY-31): inhibited; progress of airway anaphylaxis (Mouse Asthma Model; DAY-31): inhibited
10 | O=C(NC(CCCCC(NC(=O)c1c(Cl)cccc1Cl)C(=O)O)C(=O)O)c1c(Cl)cccc1Cl (stereo not shown) [Example 154, 2,7-bis((2,6-dichlorophenyl)carbonylamino)octanedioic acid] | 430 nM |  | 
11 | O=C(O)CCc1ccc(C[C@H](NC(=O)c2c(Cl)cccc2Cl)C(=O)O)cc1 [Example 161, 2(S)-2-((2,6-dichlorophenyl)carbonylamino)-3-(4-(2-carbaxyethyl)phenyl)propionic acid] |  | 64 nM | 
12 | CC(C)C[C@H](NC(=O)Cc1ccc(NC(=O)Nc2ccccc2)cc1)C(=O)N[C@@H](Cc1ccc(CCC(=O)O)cc1)C(=O)O [Example 171, (2S)-2-((2S)-4-methyl-2-(2-(4-((phenylamino)carbonylamino)phenyl)acetylamino)pentanoylamino)-3-(4-(2-carboxyethyl)phenyl)propionic acid] | 780 nM |  | 
13 | CC(C)C[C@H](NC(=O)Cc1ccc(NC(=O)Nc2ccccc2)cc1)C(=O)N[C@@H](CCSC[C@H](NC(=O)CC(C)(C)C)C(=O)O)C(=O)O [Example 176, 4-((2R)-2-(3,3-dimethylbutanoylamino)-2-carboxyethylthio)-(2S)-2-((2S)-4-methyl-2-(2-(4-((phenylamino)carbonylamino)phenyl)acetylamino)pentanoylamino)butyric acid] | 13 nM |  | 
14 | O=C(N[C@@H](CCSC[C@H](NC(=O)c1c(Cl)cccc1Cl)C(=O)O)C(=O)O)c1c(Cl)cccc1Cl [Example 180, 4-((2R)-2-((2,6-dichlorophenyl)carbonylamino)-2-carboxyethylthio) (2S)-2-((2,6-dichlorophenyl)carbonylamino)butyric acid] |  |  | IC50 ([1]; read-out: Inhibition Activity(IC50 : nM), binding of VLA-4-IgG chimeric protein to immobilized CS-1 peptide, compound preincubated 20 minutes): 38 nM
15 | (2R)-3-(((2S)-1-(2-cyclohexylacetyl)pyrrolidin-2-yl)methylthio)-2-(3,3-dimethylbutanoylamino)propionic acid [Example 193] | 2200 nM |  | 
